Source: patent US8192962B2, “Processes for detecting toxic substances” (Daikin Industries, Ltd., priority 2001, dated 2012)

Test system: Metabolism protein genes
Assay: DNA chip mRNA expression in yeast, metabolism protein genes (Table 7)
Format: cell-based, Saccharomyces cerevisiae S288C
How it was run: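 Whole-genome yeast DNA chip hybridization (65° C., >12 h) of Cy-labeled cDNA from S288C cells exposed 2 h at 25° C. to a sub-lethal toxicant dose in YPD; value is intensity relative to chemical-free control.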

## S=C([S-])NCCNC(=S)[S-].[Zn+2] [(11), zinc N,N′-ethylenebis(dithiocarbamate)]
Yeast gene YAL012W
  The level of expressed mRNA in the presence of chemical substance/The level of expressed mRNA in the absence of chemical substance: 4.0
Yeast gene YAL038W
  The level of expressed mRNA in the presence of chemical substance/The level of expressed mRNA in the absence of chemical substance: 1.0
Yeast gene YBR003W
  level of expressed mRNA in the presence/in the absence of chemical substance: 1.3
Yeast gene YBR011C
  level of expressed mRNA in the presence/in the absence of chemical substance: 1.7
Yeast gene YBR020W
  level of expressed mRNA in the presence/in the absence of chemical substance: 1.0
Yeast gene YBR023C
  The level of expressed mRNA in the presence of chemical substance/The level of expressed mRNA in the absence of chemical substance: 0.9
Yeast gene YBR029C
  The level of expressed mRNA in the presence of chemical substance/The level of expressed mRNA in the absence of chemical substance: 0.7
Yeast gene YBR183W
  The level of expressed mRNA in the presence of chemical substance/The level of expressed mRNA in the absence of chemical substance: 1.9
Yeast gene YBR222C
  The level of expressed mRNA in the presence of chemical substance/The level of expressed mRNA in the absence of chemical substance: 1.3
Yeast gene YBR256C
  The level of expressed mRNA in the presence of chemical substance/The level of expressed mRNA in the absence of chemical substance: 3.2
Yeast gene YCL009C
  The level of expressed mRNA in the presence of chemical substance/The level of expressed mRNA in the absence of chemical substance: 1.5
Yeast gene YCL064C
  The level of expressed mRNA in the presence of chemical substance/The level of expressed mRNA in the absence of chemical substance: 1.8
Yeast gene YCR010C
  level of expressed mRNA in the presence/in the absence of chemical substance: 1.1
Yeast gene YCR034W
  level of expressed mRNA in the presence/in the absence of chemical substance: 0.8
Yeast gene YCR048W
  The level of expressed mRNA in the presence of chemical substance/The level of expressed mRNA in the absence of chemical substance: 1.2
Yeast gene YCR098C
  The level of expressed mRNA in the presence of chemical substance/The level of expressed mRNA in the absence of chemical substance: 1.3
Yeast gene YDR019C
  The level of expressed mRNA in the presence of chemical substance/The level of expressed mRNA in the absence of chemical substance: 1.8
Yeast gene YDR050C
  level of expressed mRNA in the presence/in the absence of chemical substance: 2.0
Yeast gene YDR073W
  level of expressed mRNA in the presence/in the absence of chemical substance: 1.0
Yeast gene YDR123C
  level of expressed mRNA in the presence/in the absence of chemical substance: 0.6
Yeast gene YDR178W
  level of expressed mRNA in the presence/in the absence of chemical substance: 2.0
Yeast gene YDR277C
  level of expressed mRNA in the presence/in the absence of chemical substance: 1.2
Yeast gene YDR284C
  level of expressed mRNA in the presence/in the absence of chemical substance: 1.3
Yeast gene YDR345C
  level of expressed mRNA in the presence/in the absence of chemical substance: 1.5
Yeast gene YDR380W
  The level of expressed mRNA in the presence of chemical substance/The level of expressed mRNA in the absence of chemical substance: 0.4
Yeast gene YDR400W
  level of expressed mRNA in the presence/in the absence of chemical substance: 1.3
Yeast gene YDR408C
  level of expressed mRNA in the presence/in the absence of chemical substance: 1.7
Yeast gene YDR483W
  level of expressed mRNA in the presence/in the absence of chemical substance: 1.4
Yeast gene YDR497C
  The level of expressed mRNA in the presence of chemical substance/The level of expressed mRNA in the absence of chemical substance: 0.7
Yeast gene YDR502C
  The level of expressed mRNA in the presence of chemical substance/The level of expressed mRNA in the absence of chemical substance: 1.3
Yeast gene YDR516C
  The level of expressed mRNA in the presence of chemical substance/The level of expressed mRNA in the absence of chemical substance: 2.8
Yeast gene YEL063C
  level of expressed mRNA in the presence/in the absence of chemical substance: 0.8
Yeast gene YER015W
  level of expressed mRNA in the presence/in the absence of chemical substance: 1.0
Yeast gene YER026C
  The level of expressed mRNA in the presence of chemical substance/The level of expressed mRNA in the absence of chemical substance: 0.9
Yeast gene YER053C
  The level of expressed mRNA in the presence of chemical substance/The level of expressed mRNA in the absence of chemical substance: 2.4
Yeast gene YER069W
  The level of expressed mRNA in the presence of chemical substance/The level of expressed mRNA in the absence of chemical substance: 1.5
Yeast gene YER081W
  level of expressed mRNA in the presence/in the absence of chemical substance: 1.1
Yeast gene YER096W
  The level of expressed mRNA in the presence of chemical substance/The level of expressed mRNA in the absence of chemical substance: 1.1
Yeast gene YER120W
  level of expressed mRNA in the presence/in the absence of chemical substance: 1.1
Yeast gene YER178W
  The level of expressed mRNA in the presence of chemical substance/The level of expressed mRNA in the absence of chemical substance: 2.5
Yeast gene YFL011W
  level of expressed mRNA in the presence/in the absence of chemical substance: 2.1
Yeast gene YFL014W
  The level of expressed mRNA in the presence of chemical substance/The level of expressed mRNA in the absence of chemical substance: 5.0
Yeast gene YFL030W
  The level of expressed mRNA in the presence of chemical substance/The level of expressed mRNA in the absence of chemical substance: 5.4
Yeast gene YFL031W
  The level of expressed mRNA in the presence of chemical substance/The level of expressed mRNA in the absence of chemical substance: 1.2
Yeast gene YFL056C
  The level of expressed mRNA in the presence of chemical substance/The level of expressed mRNA in the absence of chemical substance: 68.3
Yeast gene YFL057C
  The level of expressed mRNA in the presence of chemical substance/The level of expressed mRNA in the absence of chemical substance: 27.7
Yeast gene YFR015C
  The level of expressed mRNA in the presence of chemical substance/The level of expressed mRNA in the absence of chemical substance: 3.9
Yeast gene YFR047C
  The level of expressed mRNA in the presence of chemical substance/The level of expressed mRNA in the absence of chemical substance: 2.3
Yeast gene YGL012W
  level of expressed mRNA in the presence/in the absence of chemical substance: 0.6
Yeast gene YGL022W
  The level of expressed mRNA in the presence of chemical substance/The level of expressed mRNA in the absence of chemical substance: 0.8
Yeast gene YGL115W
  level of expressed mRNA in the presence/in the absence of chemical substance: 1.0
Yeast gene YGL126W
  The level of expressed mRNA in the presence of chemical substance/The level of expressed mRNA in the absence of chemical substance: 1.0
Yeast gene YGL205W
  level of expressed mRNA in the presence/in the absence of chemical substance: 0.4
Yeast gene YGL209W
  The level of expressed mRNA in the presence of chemical substance/The level of expressed mRNA in the absence of chemical substance: 0.8
Yeast gene YGL248W
  The level of expressed mRNA in the presence of chemical substance/The level of expressed mRNA in the absence of chemical substance: 1.0
Yeast gene YGR037C
  The level of expressed mRNA in the presence of chemical substance/The level of expressed mRNA in the absence of chemical substance: 1.4
Yeast gene YGR055W
  The level of expressed mRNA in the presence of chemical substance/The level of expressed mRNA in the absence of chemical substance: 1.5
Yeast gene YGR096W
  level of expressed mRNA in the presence/in the absence of chemical substance: 0.8
Yeast gene YGR191W
  level of expressed mRNA in the presence/in the absence of chemical substance: 1.6
Yeast gene YGR194C
  The level of expressed mRNA in the presence of chemical substance/The level of expressed mRNA in the absence of chemical substance: 0.7
Yeast gene YGR204W
  level of expressed mRNA in the presence/in the absence of chemical substance: 2.1
Yeast gene YGR256W
  The level of expressed mRNA in the presence of chemical substance/The level of expressed mRNA in the absence of chemical substance: 2.7
Yeast gene YGR282C
  The level of expressed mRNA in the presence of chemical substance/The level of expressed mRNA in the absence of chemical substance: 1.5
Yeast gene YGR288W
  level of expressed mRNA in the presence/in the absence of chemical substance: 1.3
Yeast gene YHR025W
  level of expressed mRNA in the presence/in the absence of chemical substance: 2.1
Yeast gene YHR111W
  The level of expressed mRNA in the presence of chemical substance/The level of expressed mRNA in the absence of chemical substance: 1.9
Yeast gene YHR123W
  level of expressed mRNA in the presence/in the absence of chemical substance: 1.2
Yeast gene YHR137W
  The level of expressed mRNA in the presence of chemical substance/The level of expressed mRNA in the absence of chemical substance: 0.6
Yeast gene YHR174W
  The level of expressed mRNA in the presence of chemical substance/The level of expressed mRNA in the absence of chemical substance: 1.4
Yeast gene YHR176W
  The level of expressed mRNA in the presence of chemical substance/The level of expressed mRNA in the absence of chemical substance: 1.2
Yeast gene YHR210C
  level of expressed mRNA in the presence/in the absence of chemical substance: 1.5
Yeast gene YIL006W
  level of expressed mRNA in the presence/in the absence of chemical substance: 1.0
Yeast gene YIL045W
  The level of expressed mRNA in the presence of chemical substance/The level of expressed mRNA in the absence of chemical substance: 1.2
Yeast gene YIL107C
  The level of expressed mRNA in the presence of chemical substance/The level of expressed mRNA in the absence of chemical substance: 0.9
Yeast gene YIL154C
  The level of expressed mRNA in the presence of chemical substance/The level of expressed mRNA in the absence of chemical substance: 1.2
Yeast gene YIL155C
  The level of expressed mRNA in the presence of chemical substance/The level of expressed mRNA in the absence of chemical substance: 1.3
Yeast gene YIL167W
  The level of expressed mRNA in the presence of chemical substance/The level of expressed mRNA in the absence of chemical substance: 1.9
Yeast gene YIR017C
  The level of expressed mRNA in the presence of chemical substance/The level of expressed mRNA in the absence of chemical substance: 4.2
Yeast gene YIR034C
  The level of expressed mRNA in the presence of chemical substance/The level of expressed mRNA in the absence of chemical substance: 3.0
Yeast gene YIR036C
  The level of expressed mRNA in the presence of chemical substance/The level of expressed mRNA in the absence of chemical substance: 2.8
Yeast gene YJL031C
  The level of expressed mRNA in the presence of chemical substance/The level of expressed mRNA in the absence of chemical substance: 1.9
Yeast gene YJL068C
  The level of expressed mRNA in the presence of chemical substance/The level of expressed mRNA in the absence of chemical substance: 3.2
Yeast gene YJL088W
  The level of expressed mRNA in the presence of chemical substance/The level of expressed mRNA in the absence of chemical substance: 0.9
Yeast gene YJL099W
  The level of expressed mRNA in the presence of chemical substance/The level of expressed mRNA in the absence of chemical substance: 0.9
Yeast gene YJL121C
  level of expressed mRNA in the presence/in the absence of chemical substance: 1.1
Yeast gene YJL167W
  level of expressed mRNA in the presence/in the absence of chemical substance: 1.2
Yeast gene YJL172W
  The level of expressed mRNA in the presence of chemical substance/The level of expressed mRNA in the absence of chemical substance: 1.4
Yeast gene YJL216C
  level of expressed mRNA in the presence/in the absence of chemical substance: 1.1
Yeast gene YJL219W
  The level of expressed mRNA in the presence of chemical substance/The level of expressed mRNA in the absence of chemical substance: 2.3
Yeast gene YJR077C
  level of expressed mRNA in the presence/in the absence of chemical substance: 1.6
Yeast gene YJR137C
  The level of expressed mRNA in the presence of chemical substance/The level of expressed mRNA in the absence of chemical substance: 2.0
Yeast gene YJR143C
  level of expressed mRNA in the presence/in the absence of chemical substance: 1.3
Yeast gene YJR148W
  The level of expressed mRNA in the presence of chemical substance/The level of expressed mRNA in the absence of chemical substance: 0.6
